These are literature values, as cited in paper PMC3310340 (Bioconjugate Chemistry, 2012).

Some results are limits rather than exact numbers.

The subject of the data set is rats. The settings on record: administered orally to rats; ref material safety data sheet for KHP.

For `O=C(O)c1ccccc1C(=O)O` [KHP, potassium biphthalate], the LD50 was more than 3200 mg/kg.

In general, LD50 refers to the dose at which mortality reaches 50%.
